Experimental data from patent US10925840B2, “Use of fenoterol and fenoterol analogues in the treatment of glioblastomas and astrocytomas” (priority 2010, dated 2021).
“And” between values parts separate entries of the source, which are not always exact repeats. Identical values can stand only once. Counter-ions that a name gives are not always drawn. Like-named read-outs stand apart in the source and are kept apart here.

How the values were obtained:
human β2-AR = human β2-AR (Homo sapiens (Human), UniProt P07550)
rat cardiomyocyte = assay: Rat cardiomyocyte contractility model; format: cell-based
β1-AR = β1-AR (Rattus norvegicus (Rat), UniProt P18090); conditions: read-out: Ki β1; Ki ± SEM, n=3
β1-AR, sequence (P18090 whole entry): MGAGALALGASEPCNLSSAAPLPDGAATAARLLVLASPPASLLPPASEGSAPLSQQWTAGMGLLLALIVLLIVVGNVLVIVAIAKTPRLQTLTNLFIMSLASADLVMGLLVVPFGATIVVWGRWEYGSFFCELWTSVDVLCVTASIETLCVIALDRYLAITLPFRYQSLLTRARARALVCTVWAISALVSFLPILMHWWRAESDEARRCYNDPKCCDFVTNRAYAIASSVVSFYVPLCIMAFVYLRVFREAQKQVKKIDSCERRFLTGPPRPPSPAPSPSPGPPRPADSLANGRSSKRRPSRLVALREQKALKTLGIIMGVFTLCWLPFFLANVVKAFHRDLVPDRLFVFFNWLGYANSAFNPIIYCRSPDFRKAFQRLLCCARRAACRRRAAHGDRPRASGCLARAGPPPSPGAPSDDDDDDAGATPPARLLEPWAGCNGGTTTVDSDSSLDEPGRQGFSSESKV

U118 cells = conditions: [3H]-thymidine incorporation
1321N1 cells [1] = assay: Cell cycle distribution by flow cytometry in 1321N1 cells; conditions: 20 hours
[2] = IV 5 mg/kg
β2-AR = conditions: previously reported; cited from earlier work
1321N1 cells [3] = assay: Inhibition of mitogenesis, [3H]-thymidine incorporation in 1321N1 cells; format: cell-based, human
[4] = Brain and plasma distribution after single IV administration in rats; format: in vivo, male Sprague-Dawley rats
Protocol: An overview of the research study design for evaluating the brain-to-plasma distribution of [^3H]
(specific activity 57 Ci/mmol); vehicle was sterile saline, 0.9% sodium chloride, USP. Dose formulations were prepared on the day of the study. The amount of radioactivity in the dose formulation was determined by liquid scintillation. The study lasted for an hour and radioactivity levels in plasma and brain tissue were evaluated at the conclusion of the study. Approximately 5 mls of whole blood was collected. Blood samples were collected via cardiac puncture, transferred into a tube containing K3EDTA as the anticoagulant and kept on wet ice until processed to plasma. To generate plasma, samples were centrifuged within 15 minutes of collection at 2,500 RPM for 15 minutes at room temperature. Plasma was divided equally into three labeled cryovials and stored on ample dry ice until transferred to a freezer set at ≤−20° C. for storage until analysis. Duplicate aliquots were weighed and then combined with scintillation cocktail. The [^3H] radioactivity was determined on a liquid scintillation counter. Brain samples were snap frozen in liquid nitrogen and stored at ≤−70° C. until analysis. Whole brain tissue was homogenized and the weight of the homogenate was determined. Duplicate aliquots from the homogenate were weighed, solubilized and then combined with scintillation cocktail. The [^3H] radioactivity was determined on a liquid scintillation counter.

[5] = rat, IV 5 mg/kg, 5 min, listed as [^3H]—(R,R)-methoxyfenoterol
[6] = rat, IV 5 mg/kg, 60 min, listed as [^3H]—(R,R)-methoxyfenoterol

Q: For `C[C@H](Cc1cccc2ccccc12)NC[C@@H](O)c1cc(O)cc(O)c1.O=C(O)/C=C/C(=O)O` (racemic) [(S,R)-5, (S,R)-(+)-5-{1-hydroxy-2-[1-methyl-2-(1-naphthyl)ethylamino]ethyl}-1,3-benzenediol Fumarate], which “affinity for the β2-AR weaker than (R,R)-5” value (human β2-AR) is on record?
A: 7 fold

Q: Which EC50 (rat cardiomyocyte) does the source give for `C[C@@H](Cc1ccc(O)cc1)NC[C@@H](O)c1cc(O)cc(O)c1` (racemic) [(S,S)-1, (S,S)-(±)-Fenoterol] here?
A: 55 µM

Q: Which Ki (β1-AR) does the source give for `O=C(O)/C=C/C(=O)O.Oc1cc(O)cc([C@@H](O)CNCCc2ccccc2)c1` [(R)-7, (R)-(−)-5-(1-Hydroxy-2-phenethylaminoethyl)-1,3-benzenediol fumarate] here?
A: 42.5 ± 3.47 µM

Q: What about the “Kiβ2 value higher than (R,S)-3” value (human β2-AR; relative to (R,S)-3) of the same compound?
A: 32%

Q: With `C[C@H](Cc1ccc(O)cc1)NC[C@H](O)c1cc(O)cc(O)c1` [(R,R)-1, (R,R)-(−)-Fenoterol] as the compound, how does the “IC50 higher than the value calculated in 1321N1 cells” value (U118 cells) read?
A: 50 fold

Q: And the “% Phase Distribution G2” value (1321N1 cells [1]; 0.1 nM)?
A: 1.8%

Q: What about the “% Phase Distribution G1” value (1321N1 cells [1]; 10.0 nM) of the same compound?
A: 76.0%

Q: And the “% Phase Distribution G2” value (1321N1 cells [1]; 10.0 nM)?
A: 2.1%

Q: What about the “% Phase Distribution G2” value (1321N1 cells [1]; 1000 nM) of the same compound?
A: 0.7%

Q: With `COc1ccc(C[C@@H](C)NC[C@H](O)c2cc(O)cc(O)c2)cc1.O=C(O)/C=C/C(=O)O` [(R,R)-2, (R,R)-(−)-1-p-Methoxyphenyl-2-(β-3′,5′-dihydroxy-phenyl-β-oxy)ethylamino-propane Fumarate] as the compound, how does the “plasma concentration, individual rat” value ([2]; 300 min, listed as (R,R)-methoxyfenoterol) read?
A: 0.06 ug/ml and 0.07 ug/ml (3×) and 0.09 ug/ml

Q: And the “systemic exposure (AUC) compared to (R,R)-fenoterol” value ([2]; rat)?
A: significantly higher

Q: And the B ([2]; rat, two-compartment open model)?
A: 0.3900 µg/mL

Q: With `C[C@@H](Cc1cccc2ccccc12)NC[C@H](O)c1cc(O)cc(O)c1.O=C(O)/C=C/C(=O)O` [(R,S)-5, (R,S)-(−)-5-{1-hydroxy-2-[1-methyl-2-(1-naphthyl)ethylamino]ethyl}-1,3-benzenediol Fumarate] as the compound, how does the “plasma concentration, individual rat” value ([2]; 240 min, listed as (R,S)-naphthylfenoterol, Fumarate) read?
A: 0.11 ug/ml (3×) and 0.13 ug/ml (2×)

Q: What about the “plasma concentration, individual rat” value ([2]; 300 min, listed as (R,S)-naphthylfenoterol, Fumarate) of the same compound?
A: 0.10 ug/ml (2×) and 0.11 ug/ml (2×) and 0.12 ug/ml

Q: What about the “systemic exposure (AUC) compared to (R,R)-fenoterol” value ([2]; rat) of the same compound?
A: significantly higher

Q: And the “plasma concentration, Average” value ([2]; rat, 15 min)?
A: 680 ng/mL

Q: And the “plasma concentration, Average” value ([2]; rat, 30 min)?
A: 430 ng/mL

Q: What about the “plasma concentration, Average” value ([2]; rat, 60 min) of the same compound?
A: 340 ng/mL

Q: What about the “plasma concentration, Average” value ([2]; rat, 120 min) of the same compound?
A: 240 ng/mL

Q: What about the “plasma concentration, Average” value ([2]; rat, 240 min) of the same compound?
A: 120 ng/mL

Q: What about the “plasma concentration, Average” value ([2]; rat, 300 min) of the same compound?
A: 110 ng/mL

Q: What about the “plasma concentration, Average” value ([2]; rat, 360 min) of the same compound?
A: 90 ng/mL

Q: With `Oc1cc(O)cc([C@H](O)CNCCc2ccccc2)c1` [(S)-7, (S)-(+)-5-(1-hydroxy-2-phenethylaminoethyl)-1,3-benzenediol Fumarate] as the compound, how does the Ki (β1-AR) read?
A: 52.2 ± 3.01 µM

Q: Which “Ki β1/Ki β2 ratio” value (β2-AR) does the source give for `CC(C)NCC(O)c1ccc(O)c2[nH]c(=O)ccc12` (stereo not shown) [Compound 50] here?
A: 1.7

Q: With `NCC(O)c1ccc(O)c2[nH]c(=O)ccc12` (stereo not shown) [Compound 51] as the compound, how does the “Ki β1/Ki β2 ratio” value (β2-AR) read?
A: 1.3

Q: What does the source list for `Cc1ccc(OCC(O)C(C)NC(C)C)c2c1CCC2` (stereo not shown) [ICI 118-551]?
A: shift of the (R,R)-fenoterol dose response curve (1321N1 cells [3]; 1 nM and 3 nM): parallel rightward shift; pA2 against inhibitory effect of (R,R)-fenoterol (1321N1 cells [3]; [3H]-thymidine incorporation, 1321N1 cells): 8.9; slope of competitive inhibition (1321N1 cells [3]; [3H]-thymidine incorporation, versus (R,R)-fenoterol): −1.3±0.3

Q: Which “decrease of plasma level” value ([4]; from 5 minutes to 60 minutes) does the source give for `[3H]COc1ccc(C[C@@H](C)NC[C@H](O)c2cc(O)cc(O)c2)cc1` [[^3H]-(R,R)-methoxyfenoterol, [^3H]—(R,R)-methoxyfenoterol chloride] here?
A: 62%

Q: And the “passage through the blood brain barrier” value ([4]; rat, IV)?
A: pass through the blood brain barrier

Q: And the “Brain level, Mean” value ([4]; rat, IV 5 mg/kg, 5 min)?
A: 0.92 μg-equiv/g

Q: And the “Percent of Dose in Brain, Mean” value ([4]; rat, IV 5 mg/kg, 5 min)?
A: 0.14%

Q: And the “Plasma level, Mean” value ([4]; rat, IV 5 mg/kg, 5 min)?
A: 3.25 μg-equiv/ml

Q: And the “Brain level, Mean” value [4, 5]?
A: 0.92±0.10 μg-equiv/g

Q: What about the “Plasma level, Mean” value [4, 5] of the same compound?
A: 3.25±0.15 μg-equiv/ml

Q: What about the “Brain level, Mean” value ([4]; rat, IV 5 mg/kg, 15 min) of the same compound?
A: 0.80 μg-equiv/g

Q: And the “Percent of Dose in Brain, Mean” value ([4]; rat, IV 5 mg/kg, 15 min)?
A: 0.12%

Q: And the “Plasma level, Mean” value ([4]; rat, IV 5 mg/kg, 15 min)?
A: 1.79 μg-equiv/ml

Q: What about the “Brain level, Mean” value ([4]; rat, IV 5 mg/kg, 30 min) of the same compound?
A: 0.72 μg-equiv/g

Q: And the “Percent of Dose in Brain, Mean” value ([4]; rat, IV 5 mg/kg, 30 min)?
A: 0.11%

Q: What about the “Plasma level, Mean” value ([4]; rat, IV 5 mg/kg, 30 min) of the same compound?
A: 1.53 μg-equiv/ml

Q: And the “Brain level, Mean” value ([4]; rat, IV 5 mg/kg, 60 min)?
A: 0.70 μg-equiv/g

Q: What about the “Percent of Dose in Brain, Mean” value ([4]; rat, IV 5 mg/kg, 60 min) of the same compound?
A: 0.11%

Q: And the “Plasma level, Mean” value ([4]; rat, IV 5 mg/kg, 60 min)?
A: 1.24 μg-equiv/ml

Q: And the “Brain level, Mean” value [4, 6]?
A: 0.70±0.37 μg-equiv/g

Q: What about the “Plasma level, Mean” value [4, 6] of the same compound?
A: 1.24±0.43 μg-equiv/ml

Q: And the “percent dose found in the brain, any given animal” value ([4]; rat, IV 5 mg/kg, over 60 minutes)?
A: no more than 0.17%

Q: With (R,R)-TA-2005 [Compound 49] as the compound, how does the Ki (β2-AR) read?
A: 0.012 µM

Q: What about the “Ki β1/Ki β2 ratio” value (β2-AR) of the same compound?
A: 53
